Measured values published in EP0004261A2, “Imidazole derivatives, method for their preparation and pharmaceutical compositions containing them” (F. HOFFMANN-LA ROCHE & CO. Aktiengesellschaft, priority 1978, dated 1979).

System: Bastardhunde
Assay: Coronary-dilating / haemodynamic effect in anaesthetised open-chest dogs (electromagnetic flowmeter, aortic catheter, tachograph)
Conditions: Dosis i.v. 1 mg/kg in Propylenglykol, n = 3
[1] = maximal effect in percent of baseline

Substance: 2-Aethyl-N^5(oder N^4)-nitro-1-(2,3,5-tri-O-nitro-ß-D-ribofuranosyl)imidazol-4,5-dicarboxamid [mit R1 = CH3; R2 = H]
- BP [min] (arterieller Blutdruck, Wirkungsdauer) (duration of effect): >60 min
- CABF [min] (Coronarfluss, Wirkungsdauer) (duration of effect): >60 min
- HR [min] (Herzfrequenz, Wirkungsdauer) (duration of effect): >60 min
- PL [min] (Druckgradient, Wirkungsdauer) (duration of effect): 60 min
- BP Δ % (arterieller Blutdruck) [1]: -32%
- CABF Δ % (Coronarfluss) [1]: -19%
- HR Δ % (Herzfrequenz) [1]: -6%
- PL Δ % (Druckgradient, Aortadruck minus peripherem Coronardruck) [1]: -24%
